A word on the DC50: it is the midpoint of the concentration-degradation curve.

Consider 21 compounds from patent publication US20250205342A1, “IRAK DEGRADERS AND USES THEREOF” (Kymera Therapeutics, Inc., priority 2022, published 2025).

Some results are limits rather than exact numbers.

Experiment [1] deals with T1, IRAK4 (Homo sapiens, UniProt Q9NWZ3).
T1 sequence (Q9NWZ3 1-460): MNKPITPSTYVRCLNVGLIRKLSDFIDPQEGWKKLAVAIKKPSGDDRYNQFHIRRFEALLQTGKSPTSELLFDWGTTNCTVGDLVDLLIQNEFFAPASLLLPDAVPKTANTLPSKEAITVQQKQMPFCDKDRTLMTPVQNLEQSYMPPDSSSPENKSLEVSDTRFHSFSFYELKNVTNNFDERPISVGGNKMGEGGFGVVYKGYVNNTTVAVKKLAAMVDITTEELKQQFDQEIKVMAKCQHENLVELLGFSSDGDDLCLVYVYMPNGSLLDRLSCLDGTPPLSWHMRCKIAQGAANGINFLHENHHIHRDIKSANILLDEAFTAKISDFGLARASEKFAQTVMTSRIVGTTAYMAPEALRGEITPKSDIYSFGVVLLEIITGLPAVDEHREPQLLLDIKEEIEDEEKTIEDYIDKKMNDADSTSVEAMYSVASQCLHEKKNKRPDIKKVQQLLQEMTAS
Kind of experiment: hPBMC IRAK4 degradation flow assay (monocytes). Format: cell-based. Details: endogenous in cells; host or cells: human PBMCs (monocytes, CD14 positive gate). The note with it: CD14 positive monocytes, 20 h, read-out: hPBMC monocyte DC50 at 20 h. The method, then: In the hPBMC IRAK4 degradation flow assay, frozen PBMCs were thawed into RPMI with 10% FBS and allowed to recover. On the same day as thawed, PBMCs were plated in 96 well plate, 90 μL per well. Compound plates were prepared and a 10 point, 5-fold dilution was performed with a final DMSO concentration of 0.1%. Compound 10 μL per well was added, sealed and incubated at 37° C., 5% CO2 for 20 hours (for 4 hour treatment, compounds were prepared and added the following day). Following the treatment incubation period (day 1), 1.6% PFA was added to PBMC plate and placed on plate shaker for 30 seconds and incubated for 10 mins at room temperature. Cells were spun down and washed two times with PBS/0.5% BSA, aspirated to pellet and placed into −80° C. freezer until further processing for flow. On the flow run day, PBMC plates were thawed and samples were transferred to PCR plates. The pre-perm staining cocktail (CD3 Ax488/CD8 BUV805/CD14 BUV395/CD16/56 BV711/CD19 BV785) was added to samples and incubated for 30 minutes at room temperature. Samples were washed two times and permeabilized with methanol for 10 minutes at 4° C. Samples were washed two times and the post-perm staining cocktail (CD4 PE/IRAK4 Ax647 BD #560315) was added and incubated for 30 minutes at room temperature. Samples were washed two times with PBS/BSA and run on a BD LSRFortessa. Mononuclear cells are gated by SSCH/FSCH and single cells. Monocytes are then gated through CD14 positive gate and lymphocytes are gated through CD14 negative gate. To determine absolute DC50 and max degradation values, MFI values were normalized to DMSO max and 20 hour 10 µM min control. Twenty hour dose curves were calculated using a 4 parameter logistic regression curve fit, no constraints (Top doses were removed if hook effects were observed and the bottom was constrained to 0).
(§1) IRAK4 MSD degradation in OCI-LY10 results at 4 and 24 hrs and hPBMC at 20 hrs for compounds of the invention are presented in Table 3. The letter codes for IRAK4 DC50 include: A (<0.1 μM), B (0.1-1.0 μM), C(>1.0-10.0 μM), D (>10.0 μM or not determined).

The target of experiment [2] is T1, IRAK4. Kind of experiment: IRAK4 degradation in OCI-LY10 (MSD, Meso Scale Discovery). The experiment is classed as cell-based. Details: endogenous in cells; host or cells: OCI-LY10. The conditions noted are these: OCI-LY10 cells, 24 h. The method, then: Degradation of IRAK4 in OCI-LY10 was quantitatively measured using Meso Scale Discovery technology. OCI-LY10 cells were seeded in 96-well plates (Corning 3799) with a density of 300,000 cells per well in 100 μL fresh media. Compounds were then added to the assay plates with a final top concentration of 1 to 10 μM in a 1:3 dilution series with total of 8 doses. The assay plates were then incubated for 4 to 24 hours at 37° C. under 5% CO2. The assay plates were then centrifuged for 5 minutes and the cell pellets were treated with 100 μL/well RIPA lysis buffer (Boston BioProducts BP-115D) with proteinase inhibitors. To prepare MSD assay plates (Meso Scale Discovery Catalog number L15XA-3), the plates were coated with 2 ug/mL capture antibody (mouse Anti-IRAK4 antibody [2H9], ab119942) in PBS, at 40 μL/well. The plates were then incubated overnight at […], washed 3 times with 150 μL/well TBST buffer (Cell Signaling Technology, Catalog number 9997S) and blocked with 150 μL/well blocking buffer (Meso Scale Discovery Catalog number R^93BA-4). Cell lysates were then added to MSD assay plates and the plates were incubated at room temperature for 1 hour. The plates were then washed 3 times with 150 μL/well TBST buffer and 25 μL/well primary detection antibody (rabbit Anti-IRAK4 antibody [Y279], from Abcam. Catalog number ab32511, 1 μg/mL). The assay plates were then incubated at room temperature for 1 hour, washed 3 times with 150 μL/well TBST buffer and 25 μL/well secondary detection antibody, SULFO-TAG anti-rabbit antibody were added (anti-rabbit antibody from Meso Scale Discovery, Catalog number R^32AB-1, 1 μg/mL). The assay plates were then incubated at room temperature for 1 hour, washed 3 times with 150 μL/well TBST buffer, and 150 μL/well MSD reading buffer (Meso Scale Discovery catalog number R^92TC-2) was added. The plates were then analyzed by a MSD reader (Meso Scale Discovery, Model Quick Plex SQ 120). The data was then analyzed by software Prism 7.0 from GraphPad and the dose-depended IRAK4 degradation were fit using a three-parameter logistic equation to calculate DC50.
as §1

`CCOC(=O)Cn1cc(NC(=O)[C@H]2CCCN(c3cncc(C#CCOC4CCN(C[C@H]5CC[C@H](n6cc7cc(NC(=O)c8cccc(C(F)(F)F)n8)c(OC)cc7n6)CC5)CC4)c3)C2)ccc1=O` [Compound I-22]: the values for the DC50 in experiment [1] and in experiment [2] were below 0.1 µM and above 10 µM, respectively.
Consider `CCOC(=O)Cn1cc(NC(=O)[C@H]2CCCN(c3cncc(C#CCOC4CCN(C[C@H]5CC[C@H](n6cc(NC(=O)c7cnn8ccc(N9C[C@H]%10C[C@@H]9CO%10)nc78)c(C(F)F)n6)CC5)CC4)c3)C2)ccc1=O` [Compound I-23], for which the values for the DC50 in experiment [1] and in experiment [2] were 1 to 10 µM and above 10 µM, respectively.
Turning to `COc1cc2nn([C@H]3CC[C@H](CNCCCCCCc4cncc(N5CCC[C@H](C(=O)Nc6ccc(=O)n(CC(=O)O)c6)C5)c4)CC3)cc2cc1NC(=O)c1cccc(C(F)(F)F)n1` [Compound I-24], the values for the DC50 in experiment [1] and in experiment [2] were 0.1 to 1 µM and above 10 µM, respectively.
The matching figures for `COc1cc2nn([C@H]3CC[C@H](CNCCCCc4cncc(N5CCC[C@H](C(=O)Nc6ccc(=O)n(CC(=O)O)c6)C5)c4)CC3)cc2cc1NC(=O)c1cccc(C(F)(F)F)n1` [Compound I-25]: above 10 µM and above 10 µM.
Turning to `COc1cc2nn([C@H]3CC[C@H](CNCCc4cncc(N5CCC[C@H](C(=O)Nc6ccc(=O)n(CC(=O)O)c6)C5)c4)CC3)cc2cc1NC(=O)c1cccc(C(F)(F)F)n1` [Compound I-26], the DC50 in experiment [1] and in experiment [2] was above 10 µM in each case.
As to `O=C(O)Cn1cc(NC(=O)[C@H]2CCCN(c3cncc(CCCCCCNC[C@H]4CC[C@H](n5cc(NC(=O)c6cnn7ccc(N8C[C@H]9C[C@@H]8CO9)nc67)c(C(F)F)n5)CC4)c3)C2)ccc1=O` [Compound I-27], the DC50 in experiment [1] and in experiment [2] was above 10 µM throughout.
Regarding `O=C(O)Cn1cc(NC(=O)[C@H]2CCCN(c3cncc(CCNC[C@H]4CC[C@H](n5cc(NC(=O)c6cnn7ccc(N8C[C@H]9C[C@@H]8CO9)nc67)c(C(F)F)n5)CC4)c3)C2)ccc1=O` [Compound I-28], the DC50 in experiment [1] and in experiment [2] was above 10 µM throughout.
In the case of `COc1cc2nn([C@H]3CC[C@H](CNCCOc4cncc(N5CCC[C@H](C(=O)Nc6ccc(=O)n(CC(=O)O)c6)C5)c4)CC3)cc2cc1NC(=O)c1cccc(C(F)(F)F)n1` [Compound I-29], the DC50 in experiment [1] and in experiment [2] was above 10 µM in each case.
On to `CCOC(=O)Cn1cc(NC(=O)[C@H]2CCCN(c3cncc(CCCCNC[C@H]4CC[C@H](n5cc6cc(NC(=O)c7cccc(C(F)(F)F)n7)c(OC)cc6n5)CC4)c3)C2)ccc1=O` [Compound I-31], for which the DC50 in experiment [1] and in experiment [2] was above 10 µM throughout.
As for `CCOC(=O)Cn1cc(NC(=O)[C@H]2CCCN(c3cncc(CCCCCCNC[C@H]4CC[C@H](n5cc(NC(=O)c6cnn7ccc(N8C[C@H]9C[C@@H]8CO9)nc67)c(C(F)F)n5)CC4)c3)C2)ccc1=O` [Compound I-32], the DC50 in experiment [1] and in experiment [2] was above 10 µM throughout.
On to `CCOC(=O)Cn1cc(NC(=O)[C@H]2CCCN(c3cncc(OCCNC[C@H]4CC[C@H](n5cc6cc(NC(=O)c7cccc(C(F)(F)F)n7)c(OC)cc6n5)CC4)c3)C2)ccc1=O` [Compound I-33], for which the DC50 in experiment [1] is 1 to 10 µM; in experiment [2] it was above 10 µM.
For `CCOC(=O)Cn1cc(NC(=O)[C@H]2CCCN(c3cncc(N4CCC(CN(C)C[C@H]5CC[C@H](n6cc(NC(=O)c7cnn8ccc(N9C[C@H]%10C[C@@H]9CO%10)nc78)c(C(F)F)n6)CC5)CC4)c3)C2)ccc1=O` [Compound I-34], in that order: above 10 µM and above 10 µM.
Take `CCOC(=O)Cn1cc(NC(=O)[C@H]2CCCN(c3cncc(CCNC[C@H]4CC[C@H](n5cc(NC(=O)c6cnn7ccc(N8C[C@H]9C[C@@H]8CO9)nc67)c(C(F)F)n5)CC4)c3)C2)ccc1=O` [Compound I-36]: the DC50 in experiment [1] was 1 to 10 µM; in experiment [2], above 10 µM.
For `O=C(O)Cn1cc(NC(=O)[C@H]2CCCN(c3cncc(OCCOCCOCCOCCOCCNC[C@H]4CC[C@H](n5cc(NC(=O)c6cnn7ccc(N8C[C@H]9C[C@@H]8CO9)nc67)c(C(F)F)n5)CC4)c3)C2)ccc1=O` [Compound I-37], in that order: 1 to 10 µM and above 10 µM.
For `COc1cc2nn([C@H]3CC[C@H](CNCCOCCOCCOCCOCCOc4cncc(N5CCC[C@H](C(=O)Nc6ccc(=O)n(CC(=O)O)c6)C5)c4)CC3)cc2cc1NC(=O)c1cccc(C(F)(F)F)n1` [Compound I-38], in that order: 1 to 10 µM and above 10 µM.
The matching figures for `COc1cc2nn([C@H]3CC[C@H](CNCCOCCOCCOc4cncc(N5CCC[C@H](C(=O)Nc6ccc(=O)n(CC(=O)O)c6)C5)c4)CC3)cc2cc1NC(=O)c1cccc(C(F)(F)F)n1` [Compound I-40]: above 10 µM and above 10 µM.
For `CCOC(=O)Cn1cc(NC(=O)[C@H]2CCCN(c3cncc(OCCOCCOCCNC[C@H]4CC[C@H](n5cc6cc(NC(=O)c7cccc(C(F)(F)F)n7)c(OC)cc6n5)CC4)c3)C2)ccc1=O` [Compound I-41], the DC50 in experiment [1] and in experiment [2] was above 10 µM each time.
For `CCOC(=O)Cn1cc(NC(=O)[C@H]2CCCN(c3cncc(CCCCCCNC[C@H]4CC[C@H](n5cc6cc(NC(=O)c7cccc(C(F)(F)F)n7)c(OC)cc6n5)CC4)c3)C2)ccc1=O` [Compound I-42], the DC50 in experiment [1] was below 0.1 µM; in experiment [2], above 10 µM.
The matching figures for `CCOC(=O)Cn1cc(NC(=O)[C@H]2CCCN(c3cncc(OCCOCCOCCOCCOCCNC[C@H]4CC[C@H](n5cc6cc(NC(=O)c7cccc(C(F)(F)F)c7)c(OC)cc6n5)CC4)c3)C2)ccc1=O` [Compound I-43]: 1 to 10 µM and above 10 µM.
For `O=C(O)Cn1cc(NC(=O)[C@H]2CCCN(c3cncc(OCCOCCOCCNC[C@H]4CC[C@H](n5cc(NC(=O)c6cnn7ccc(N8C[C@H]9C[C@@H]8CO9)nc67)c(C(F)F)n5)CC4)c3)C2)ccc1=O` [Compound I-44], in that order: above 10 µM and above 10 µM.
Turning to `CCOC(=O)Cn1cc(NC(=O)[C@H]2CCCN(c3cncc(OCCOCCOCCNC[C@H]4CC[C@H](n5cc(NC(=O)c6cnn7ccc(N8C[C@H]9C[C@@H]8CO9)nc67)c(C(F)F)n5)CC4)c3)C2)ccc1=O` [Compound I-45], the 50% degradation concentration (DC50) is 1 to 10 µM in experiment [1] and above 10 µM in experiment [2].
